Measurements as given in the supplement of paper PMC10307832.

Columns and labels:
Assay in all cases: relative viability (nuclei count vs DMSO), 5 days (fraction); higher = more cells survive
201T = system: 201T
Summary of the method: (§1)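 One day after seeding in 1536-well plates, lung cancer cell lines were dosed by pin tool. Dosing was either single-drug or a fixed anchor-drug dose plus five library-drug doses (not always all listed) in √10 steps. After 5 days, nuclei were stained in one fix-and-stain step and counted on 4× images, and relative viability is the nuclei count of treated wells over that of vehicle wells, given as the median of duplicate plates.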

BEN = system: BEN
Summary of the method: as §1

EMC-BAC-2 = system: EMC-BAC-2
Summary of the method: as §1

HARA = system: HARA
Summary of the method: as §1

HCC-44 = system: HCC-44
Summary of the method: as §1

LCLC-103H = system: LCLC-103H
Summary of the method: as §1

LOU-NH91 = system: LOU-NH91
Summary of the method: as §1

NCI-H1395 = system: NCI-H1395
Summary of the method: as §1

NCI-H1993 = system: NCI-H1993
Summary of the method: as §1

NCI-H2023 = system: NCI-H2023
Summary of the method: as §1

NCI-H2087 = system: NCI-H2087
Summary of the method: as §1

NCI-H2126 = system: NCI-H2126
Summary of the method: as §1

NCI-H2347 = system: NCI-H2347
Summary of the method: as §1

NCI-H23 = system: NCI-H23
Summary of the method: as §1

NCI-H3122 = system: NCI-H3122
Summary of the method: as §1

NCI-H441 = system: NCI-H441
Summary of the method: as §1

NCI-H596 = system: NCI-H596
Summary of the method: as §1

NCI-H647 = system: NCI-H647
Summary of the method: as §1

NCI-H650 = system: NCI-H650
Summary of the method: as §1

NCI-H727 = system: NCI-H727
Summary of the method: as §1

NCI-H838 = system: NCI-H838
Summary of the method: as §1

SMILES: COc1cc2nccc(Oc3ccc(NC(=O)Nc4cc(C)on4)c(Cl)c3)c2cc1OC [Tivozanib] + CS(=O)(=O)N1CCN(Cc2cc3nc(-c4cccc5[nH]ncc45)nc(N4CCOCC4)c3s2)CC1 [Pictilisib] (partner 1 µM)
- relative viability (201T; first compound 0.005 µM): 0.377
- relative viability (201T; first compound 0.01581 µM): 0.69
- relative viability (201T; first compound 0.05 µM): 0.686
- relative viability (201T; first compound 0.1581 µM): 0.588
- relative viability (201T; first compound 0.5 µM): 0.632
- relative viability (BEN; first compound 0.005 µM): 0.61
- relative viability (BEN; first compound 0.01581 µM): 0.541
- relative viability (BEN; first compound 0.05 µM): 0.603
- relative viability (BEN; first compound 0.5 µM): 0.505
- relative viability (EMC-BAC-2; first compound 0.005 µM): 0.561
- relative viability (EMC-BAC-2; first compound 0.01581 µM): 0.529
- relative viability (EMC-BAC-2; first compound 0.05 µM): 0.554
- relative viability (EMC-BAC-2; first compound 0.1581 µM): 0.389
- relative viability (EMC-BAC-2; first compound 0.5 µM): 0.578
- relative viability (HARA; first compound 0.005 µM): 0.395
- relative viability (HARA; first compound 0.01581 µM): 0.312
- relative viability (HARA; first compound 0.05 µM): 0.485
- relative viability (HARA; first compound 0.1581 µM): 0.309
- relative viability (HARA; first compound 0.5 µM): 0.603
- relative viability (HCC-44; first compound 0.005 µM): 0.617
- relative viability (HCC-44; first compound 0.01581 µM): 0.471
- relative viability (HCC-44; first compound 0.05 µM): 0.718
- relative viability (HCC-44; first compound 0.1581 µM): 0.488
- relative viability (HCC-44; first compound 0.5 µM): 0.654
- relative viability (LCLC-103H; first compound 0.005 µM): 0.58
- relative viability (LCLC-103H; first compound 0.01581 µM): 0.735
- relative viability (LCLC-103H; first compound 0.05 µM): 0.604
- relative viability (LCLC-103H; first compound 0.1581 µM): 0.602
- relative viability (LCLC-103H; first compound 0.5 µM): 0.591
- relative viability (LOU-NH91; first compound 0.005 µM): 0.467
- relative viability (LOU-NH91; first compound 0.01581 µM): 0.519
- relative viability (LOU-NH91; first compound 0.05 µM): 0.559
- relative viability (LOU-NH91; first compound 0.1581 µM): 0.485
- relative viability (LOU-NH91; first compound 0.5 µM): 0.526
- relative viability (NCI-H1395; first compound 0.005 µM): 0.671
- relative viability (NCI-H1395; first compound 0.01581 µM): 0.746
- relative viability (NCI-H1395; first compound 0.05 µM): 0.769
- relative viability (NCI-H1395; first compound 0.1581 µM): 0.627
- relative viability (NCI-H1395; first compound 0.5 µM): 0.678
- relative viability (NCI-H1993; first compound 0.005 µM): 0.845
- relative viability (NCI-H1993; first compound 0.01581 µM): 0.782
- relative viability (NCI-H1993; first compound 0.05 µM): 0.875
- relative viability (NCI-H1993; first compound 0.1581 µM): 0.709
- relative viability (NCI-H1993; first compound 0.5 µM): 0.737
- relative viability (NCI-H2023; first compound 0.005 µM): 0.238
- relative viability (NCI-H2023; first compound 0.01581 µM): 0.228
- relative viability (NCI-H2023; first compound 0.05 µM): 0.249
- relative viability (NCI-H2023; first compound 0.1581 µM): 0.178
- relative viability (NCI-H2023; first compound 0.5 µM): 0.195
- relative viability (NCI-H2087; first compound 0.005 µM): 0.765
- relative viability (NCI-H2087; first compound 0.01581 µM): 1.08
- relative viability (NCI-H2087; first compound 0.05 µM): 0.851
- relative viability (NCI-H2087; first compound 0.1581 µM): 0.738
- relative viability (NCI-H2087; first compound 0.5 µM): 1.02
- relative viability (NCI-H2126; first compound 0.005 µM): 0.41
- relative viability (NCI-H2126; first compound 0.01581 µM): 0.533
- relative viability (NCI-H2126; first compound 0.05 µM): 0.489
- relative viability (NCI-H2126; first compound 0.1581 µM): 0.36
- relative viability (NCI-H2126; first compound 0.5 µM): 0.469
- relative viability (NCI-H2347; first compound 0.005 µM): 0.599
- relative viability (NCI-H2347; first compound 0.01581 µM): 0.53
- relative viability (NCI-H2347; first compound 0.05 µM): 0.846
- relative viability (NCI-H2347; first compound 0.1581 µM): 0.344
- relative viability (NCI-H2347; first compound 0.5 µM): 0.727
- relative viability (NCI-H23; first compound 0.005 µM): 0.443
- relative viability (NCI-H23; first compound 0.01581 µM): 0.471
- relative viability (NCI-H23; first compound 0.05 µM): 0.409
- relative viability (NCI-H23; first compound 0.1581 µM): 0.319
- relative viability (NCI-H23; first compound 0.5 µM): 0.49
- relative viability (NCI-H3122; first compound 0.005 µM): 0.568
- relative viability (NCI-H3122; first compound 0.01581 µM): 0.547
- relative viability (NCI-H3122; first compound 0.05 µM): 0.598
- relative viability (NCI-H3122; first compound 0.1581 µM): 0.644
- relative viability (NCI-H3122; first compound 0.5 µM): 0.789
- relative viability (NCI-H441; first compound 0.005 µM): 0.571
- relative viability (NCI-H441; first compound 0.01581 µM): 0.511
- relative viability (NCI-H441; first compound 0.05 µM): 0.536
- relative viability (NCI-H441; first compound 0.1581 µM): 0.484
- relative viability (NCI-H441; first compound 0.5 µM): 0.31
- relative viability (NCI-H596; first compound 0.005 µM): 0.28
- relative viability (NCI-H596; first compound 0.01581 µM): 0.364
- relative viability (NCI-H596; first compound 0.05 µM): 0.427
- relative viability (NCI-H596; first compound 0.1581 µM): 0.411
- relative viability (NCI-H596; first compound 0.5 µM): 0.326
- relative viability (NCI-H647; first compound 0.005 µM): 0.419
- relative viability (NCI-H647; first compound 0.01581 µM): 0.438
- relative viability (NCI-H647; first compound 0.05 µM): 0.402
- relative viability (NCI-H647; first compound 0.1581 µM): 0.296
- relative viability (NCI-H647; first compound 0.5 µM): 0.227
- relative viability (NCI-H650; first compound 0.005 µM): 0.674
- relative viability (NCI-H650; first compound 0.01581 µM): 0.866
- relative viability (NCI-H650; first compound 0.05 µM): 0.771
- relative viability (NCI-H650; first compound 0.1581 µM): 0.78
- relative viability (NCI-H650; first compound 0.5 µM): 0.77
- relative viability (NCI-H727; first compound 0.005 µM): 0.349
- relative viability (NCI-H727; first compound 0.01581 µM): 0.56
- relative viability (NCI-H727; first compound 0.05 µM): 0.351
- relative viability (NCI-H727; first compound 0.5 µM): 0.398
- relative viability (NCI-H838; first compound 0.005 µM): 0.443
- relative viability (NCI-H838; first compound 0.01581 µM): 0.498
- relative viability (NCI-H838; first compound 0.05 µM): 0.453
- relative viability (NCI-H838; first compound 0.5 µM): 0.501
